Test results published in ChEMBL document CHEMBL1128655, “3-Fluoro-2-(4-methylpiperazin-1-yl)-5,12-dihydro-5-oxobenzoxazolo[3,2-a]quinoline-6-carboxylic acid: Synthesis and In vitro cytotoxic activity” (Bioorg Med Chem Lett, 1995).
In brackets after ≈: the same amount, converted by molar mass.

What was measured:
Format in all cases: functional, cell-based
SNU-C4 = assay: In vitro cytotoxic activity against human tumor SNU C-4(colon) cell line
SNU-354 = assay: In vitro cytotoxic activity against human tumor SNU 354 (liver) cell line
SNU1 = assay: In vitro cytotoxic activity against human tumor SNU 1 (stomach) cell line
[1] = Homo sapiens, SNU-C4, read-out: IC50
[2] = Homo sapiens, SNU-354, read-out: IC50
[3] = Homo sapiens, SNU1, read-out: IC50

Compound | IC50 (SNU-C4; [1]) [µg/mL] | IC50 (SNU-354; [2]) [µg/mL] | IC50 (SNU1; [3]) [µg/mL] | IC50 (SNU-C4; snu-c4) [µg/mL] | IC50 (SNU-354; snu-354) [µg/mL] | IC50 (SNU1; snu1) [µg/mL]
O=C(O)c1c(=O)c2cc(F)c(N3CCNCC3)cc2n2c1oc1ccccc12 | 13.4 (≈ 35.1 µM) | 19.8 (≈ 51.9 µM) | 15.3 (≈ 40.1 µM) | – | – | –
CN1CCN(c2cc3c(cc2F)c(=O)c(C(=O)O)c2oc4ccccc4n23)CC1.Cl | 1.8 | 1.9 | 2 | – | – | –
CC(=O)N1CCN(c2cc3c(cc2F)c(=O)c(C(=O)O)c2oc4ccccc4n23)CC1 | > 200 | > 200 | > 200 | – | – | –
COc1cccc2c1C(=O)c1c(O)c3c(c(O)c1C2=O)C[C@@](O)(C(=O)CO)C[C@@H]3O[C@H]1C[C@H](N)[C@H](O)[C@H](C)O1 [DOXORUBICIN] | < 0.5 | < 0.5 | < 0.5 | – | – | –
CISPLATIN | – | – | – | 2.8 | 4.1 | 1.4
